Tests used:
Fas [1] = assay: Inhibition of Fas expression on Jurkat cells by cycloheximide; type: cell-based, human; settings: for % INCREASE of Fas: Jurkat cells
Procedure: Fas and FasL expression were measured by flow cytometry using anti-Fas FITC-conjugated monoclonal antibodies and anti-FasL PE-conjugated monoclonal antibodies in a FACScalibur Flow Cytometer (Becton Dickinson, San Jose, Calif., USA) using the CELLQuest program (Becton Dickinson).
Results are expressed as percentage (%) increase in the expression of Fas and of FasL measured on treated cells compared to control cells.
Jurkat human leukemia T cells were pre-incubated with 0.0 μg/ml (−CHX) or with 0.1 μg/ml of cycloheximide (+CHX) for 1 h. Ten μg/ml or 100 μg/ml of 6 base SEQ ID NO:5 (GGGTGG) was added to both the −CHX and +CHX cells and the incubation was continued for 24 hours and for 48 hours (Table 10).

[2] = system: UMUC-3 bladder cancer cells; assay: Inhibition of UMUC-3 bladder cancer cell proliferation (MTT reduction); type: cell-based, human; settings: for % INHIBITION of cell proliferation: UMUC-3, 48 h
Procedure: UMUC-3 bladder cancer cells were incubated for 48 hours with 0.00, 0.02 and 0.20 μg/ml of agonistic anti-Fas monoclonal antibodies (clone CH-11: Coulter-Immunotech, Marseille, France) +0 or 10 μg/ml of SEQ ID NO:5. Cell proliferation was measured using dimethylthiazol-diphenyltetrazolium (MTT) reduction (Mosman et al. J. Immunol. Methods 65:55, 1983). MTT was measured at a wavelength of 570 nm using a multiplate spectrophotometer reader (ELX800, Bio-TEK Instruments Inc., Winooski, Vt.).

FasL [3] = assay: FasL expression at the cell surface by flow cytometry, LNCaP cells; type: cell-based, human; settings: LNCaP prostate cancer cells, 100 μg/ml sequence, 48 h, treated vs control cells
Procedure, shortened: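 Cells at 2×10^5 cells/ml were treated 48 h at 37° C with 100 μg/ml (5.5 μM) of the sequences or left untreated. Surface Fas and FasL were stained with FITC anti-Fas and PE anti-FasL antibodies and measured by flow cytometry. Values are % increase in expression over control cells.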

Fas [4] = assay: Fas expression at the cell surface by flow cytometry, PBMCs; type: cell-based, human; settings: 100 μg/ml sequence, 48 h, treated vs control cells
Procedure, shortened: (§1)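 PBMCs isolated by Ficoll-Hypaque gradient were seeded at 2×10^5 cells/ml and exposed for 48 h at 37 °C to 0 or 100 μg/ml (5.5 μM) of the sequences. Surface Fas and FasL were stained with FITC anti-Fas and PE anti-FasL antibodies and analysed by flow cytometry, reported as % increase over untreated cells.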

FasL [5] = assay: FasL expression at the cell surface by flow cytometry, PBMCs; type: cell-based, human; settings: 100 μg/ml sequence, 48 h, treated vs control cells
Procedure, shortened: as §1

Fas [6] = assay: Fas expression at the cell surface by flow cytometry, Jurkat cells; type: cell-based; settings: Jurkat human leukemia T cells, 100 μg/ml sequence, 48 h, treated vs control cells
Procedure, shortened: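 Jurkat cells (2×10^5 cells/ml) were incubated 48 h at 37° C. with 0 or 100 μg/ml (5.5 μM) of the sequences. Surface Fas and FasL were stained with FITC anti-Fas and PE anti-FasL antibodies and measured by flow cytometry, expressed as % increase over control cells.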

Fas [7] = assay: Fas expression at the cell surface by flow cytometry, UMUC-3 cells; type: cell-based, human; settings: UMUC-3 bladder cancer cells, 100 μg/ml sequence, 48 h, treated vs control cells
Procedure, shortened: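 Cells at 2×10^5 cells/ml treated 48 h at 37° C, 5% CO2 with 100 μg/ml (5.5 μM) sequence or 0 μg/ml control. Surface Fas (FITC) and FasL (PE) antibody-stained and read by flow cytometry. Values are % increase over control cells.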

FasL [8] = assay: FasL expression at the cell surface by flow cytometry, OVCAR-3 cells; type: cell-based, human; settings: OVCAR-3 ovarian cancer cells, 100 μg/ml sequence, 48 h, treated vs control cells
Procedure, shortened: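 OVCAR-3 cells (2×10^5 cells/ml) incubated 48 h at 37° C with 0 or 100 μg/ml (5.5 μM) of the sequences. Surface Fas and FasL stained with FITC- and PE-conjugated monoclonal antibodies, read by flow cytometry; values are % increase over untreated controls.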

Fas [9] = assay: Fas expression at the cell surface by flow cytometry, MCF-7 cells; type: cell-based, human; settings: MCF-7 breast cancer cells, 100 μg/ml sequence, 48 h, treated vs control cells
Procedure, shortened: (§2)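 MCF-7 cells at 2×10^5 cells/ml incubated 48 h at 37° C, 5% CO2 with 0 or 100 μg/ml (5.5 μM) of the sequences. Surface Fas and FasL measured by flow cytometry with FITC anti-Fas and PE anti-FasL antibodies; values as % increase in treated versus control cells.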

EAE = EAE in (SJL/J×PL/J) F1 mice induced with myelin basic protein; type: in vivo
Procedure: Female (SJL/J×PL/J) F1 mice are injected subcutaneously in both femoral regions with an emulsion containing 0.5 mg of myelin basic protein (MBP) mixed with complete Freund's adjuvant. After 24 h, 400 ng of Bordetella pertussis toxin is administered intraperitoneally. On the day of onset (day 0), group 1 mice receive saline, group 2 mice receive 1, 10 or 100 mg/kg of SEQ. ID NO:5, group 3 mice receive 1, 10 or 100 mg/kg of SEQ. ID NO:16, group 4 mice receive 1, 10 or 100 mg/kg of SEQ. ID NO:17, group 5 mice receive 1, 10 or 100 mg/kg of SEQ. ID NO: 18, group 6 mice receive anti-Fas antibodies, group 7 mice receive 1, 10 or 100 mg/kg of SEQ. ID NO:5 +anti-Fas antibodies, group 8 mice receive 1, 10 or 100 mg/kg of SEQ. ID NO:16 +anti-Fas antibodies, group 9 receive 1, 10 or 100 mg/kg of SEQ. ID NO:17 +anti-Fas antibodies, group 10 mice receive 1, 10 or 100 mg/kg of SEQ. ID NO: 18 +anti-Fas antibodies for 3 days by intracistemal administration (20 μg/day). In these different groups, anti-Fas antibodies are administered at any dose in the range of about 0.003 to about 0.3 mg/kg. […] The efficacy of the SEQ. ID NO:5, the SEQ. ID NO: 16 and the SEQ. ID NO: 17 is dose-dependent.

Fas [10] = assay: Fas expression at the cell surface by flow cytometry, SK-OV-3 cells; type: cell-based, human; settings: SK-OV-3 ovarian cancer cells, 100 μg/ml sequence, 48 h, treated vs control cells
Procedure, shortened: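 Cells at 2×10^5 cells/ml were treated 48 h at 37 °C, 5% CO2 with 100 μg/ml (5.5 μM) sequence or none. Surface Fas and FasL were stained with FITC anti-Fas and PE anti-FasL antibodies and read by flow cytometry. Values are % increase in expression over untreated cells.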

FasL [11] = assay: FasL expression at the cell surface by flow cytometry, MCF-7 cells; type: cell-based, human; settings: MCF-7 breast cancer cells, 100 μg/ml sequence, 48 h, treated vs control cells
Procedure, shortened: as §2

GGGTGG [SEQ ID NO:5]
Fas expression (Fas [1]; Jurkat T cells, 10 or 100 μg/ml, 24 h and 48 h): upregulated Fas expression
% INCREASE of Fas (Fas [1]; 10 μg/ml sequence, 24 h, +CHX (0.1 μg/ml cycloheximide)): 5%
% INCREASE of Fas (Fas [1]; 10 μg/ml sequence, 24 h, −CHX): 63%
% INCREASE of Fas (Fas [1]; 10 μg/ml sequence, 48 h, +CHX (0.1 μg/ml cycloheximide)): 51%
% INCREASE of Fas (Fas [1]; 10 μg/ml sequence, 48 h, −CHX): 91%
% INCREASE of Fas (Fas [1]; 100 μg/ml sequence, 24 h, +CHX (0.1 μg/ml cycloheximide)): 22%
% INCREASE of Fas (Fas [1]; 100 μg/ml sequence, 24 h, −CHX): 62%
% INCREASE of Fas (Fas [1]; 100 μg/ml sequence, 48 h, +CHX (0.1 μg/ml cycloheximide)): 115%
% INCREASE of Fas (Fas [1]; 100 μg/ml sequence, 48 h, −CHX): 150%
effect on the inhibitory activity of agonistic anti-Fas antibodies on cell proliferation ([2]; UMUC-3, 0.02 and 0.2 μg/ml anti-Fas antibodies, 10 μg/ml sequence): potentiated
% INHIBITION of cell proliferation ([2]; 10 μg/ml sequence + anti-Fas antibodies 0.02 μg/ml): 38%
% INHIBITION of cell proliferation ([2]; 10 μg/ml sequence + anti-Fas antibodies 0.02 μg/ml (third column)): 44%
% INHIBITION of cell proliferation ([2]; 10 μg/ml sequence, anti-Fas antibodies 0.0 μg/ml): 23%
% INCREASE FasL (FasL [3]): −1%
% INCREASE Fas (Fas [4]): 3%
% INCREASE FasL (FasL [5]): −20%
% INCREASE Fas (Fas [6]): 150%
% INCREASE Fas (Fas [7]): 67%
% INCREASE FasL (FasL [8]): 9%
% INCREASE Fas (Fas [9]): 93%
efficacy, dose dependence (EAE; 1, 10 or 100 mg/kg): dose-dependent
progression of EAE (EAE; sequence 1, 10 or 100 mg/kg + anti-Fas antibodies, for 3 days): least progression of EAE
% INCREASE Fas (Fas [10]): 3%
% INCREASE FasL (FasL [11]): 81%
